Here are results for eleven molecules from patent US7541368B2, “Pyrazoles as inhibitors of tumor necrosis factor” (Aventis Pharmaceuticals Inc., priority 2003, dated 2009).

The structures appear in SMILES notation.

The experiment concerns TNF-alpha release in THP-1 cells. Put plainly: LPS-induced TNF-alpha release in THP-1 cells. The settings on record: Homo sapiens, THP-1, LPS-stimulated THP-1 cells; read-out: 50% inhibition in the LPS-induced TNF-alpha release in THP-1 cells assay at concentrations within the range. The format is cell-based. Put shortly: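 Undifferentiated THP-1 monocytes (1×10^6 cells/ml, 1% FCS) preincubated 1 h at 37° C with compound (1×10^−9 to 1×10^−6 M, 0.3% DMSO), then stimulated with LPS (20 μg/ml) for 18 h. Supernatant TNF-alpha measured by sandwich ELISA (TMB read-out), interpolated from a log/log standard curve (0.125-16 ng/ml).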
Regarding `Cc1ccc(-n2nc(C(C)(C)C)cc2NC(=O)Nc2ccc(CC3CCN(C(=O)c4cccnc4Cl)CC3)cc2)cc1` [Compound A235, 1-(5-tert-Butyl-2-p-tolyl-2H-pyrazol-3-yl)-3-{4-[1-(2-chloro-pyridine-3-carbonyl)-piperidin-4-ylmethyl]-phenyl}-urea], the IC50 was in the range of 10 to 500 nM. In the case of `Cc1ccc(-n2nc(C(C)(C)C)cc2NC(=O)Nc2cccc(CC3CCN(C(=O)c4n[nH]c5ccccc45)CC3)c2)cc1` [Compound A167, 1-(5-tert-Butyl-2-p-tolyl-2H-pyrazol-3-yl)-3-{3-[1-(1H-indazole-3-carbonyl)-piperidin-4-ylmethyl]-phenyl}-urea] it was 10 to 500 nM; in that of `Cc1ccc(-n2nc(C(C)(C)C)cc2NC(=O)Nc2ccc(CC3CCN(C(=O)c4cccc(Nc5nc(C)cc(C)n5)c4)CC3)cc2)cc1` [Compound A371, 1-(5-tert-Butyl-2-p-tolyl-2H-pyrazol-3-yl)-3-(4-{1-[3-(4,6-dimethyl-pyrimidin-2-ylamino)-benzoyl]-piperidin-4-ylmethyl}-phenyl)-urea], 10 to 500 nM. `Cc1ccc(-n2nc(C(C)(C)C)cc2NC(=O)Nc2ccc(CC3CCN(C(=O)c4ccnc5ccccc45)CC3)cc2)cc1` [Compound A385, 1-(5-tert-Butyl-2-p-tolyl-2H-pyrazol-3-yl)-3-{4-[1-(quinoline-4-carbonyl)-piperidin-4-ylmethyl]-phenyl}-urea]: the IC50 fell in the range of 10 to 500 nM. In the case of `Cc1ccc(-n2nc(C(C)(C)C)cc2NC(=O)Nc2cccc(CC3CCN(C(=O)CCc4ccco4)CC3)c2)cc1` [Compound A81, 1-(5-tert-Butyl-2-p-tolyl-2H-pyrazol-3-yl)-3-{3-[1-(3-furan-2-yl-propionyl)-piperidin-4-ylmethyl]-phenyl}-urea] it was 10 to 500 nM; in that of `Cc1ccc(-n2nc(C(C)(C)C)cc2NC(=O)Nc2cccc(CC3CCN(C(=O)c4ccnc5ccccc45)CC3)c2)cc1` [Compound A186, 1-(5-tert-Butyl-2-p-tolyl-2H-pyrazol-3-yl)-3-{3-[1-(quinoline-4-carbonyl)-piperidin-4-ylmethyl]-phenyl}-urea], 10 to 500 nM. `COc1ccc(CC(=O)N2CCC(Cc3ccc(NC(=O)Nc4cc(C(C)(C)C)nn4-c4ccc(C)cc4)cc3)CC2)cc1OC` [Compound A262, 1-(5-tert-Butyl-2-p-tolyl-2H-pyrazol-3-yl)-3-(4-{1-[2-(3,4-dimethoxy-phenyl)-acetyl]-piperidin-4-ylmethyl}-phenyl)-urea]: the IC50 lay in the range of 10 to 500 nM. With `COc1ccc(CC(=O)N2CCC(Cc3cccc(NC(=O)Nc4cc(C(C)(C)C)nn4-c4ccc(C)cc4)c3)CC2)cc1` [Compound A122, 1-(5-tert-Butyl-2-p-tolyl-2H-pyrazol-3-yl)-3-(3-{1-[2-(4-methoxy-phenyl)-acetyl]-piperidin-4-ylmethyl}-phenyl)-urea] the figure was 10 to 500 nM; with `Cc1ccc(-n2nc(C(C)(C)C)cc2NC(=O)Nc2ccc(CC3CCN(C(=O)Cc4ccc(F)cc4)CC3)cc2)cc1` [Compound A314, 1-(5-tert-Butyl-2-p-tolyl-2H-pyrazol-3-yl)-3-(4-{1-[2-(4-fluoro-phenyl)-acetyl]-piperidin-4-ylmethyl}-phenyl)-urea], 10 to 500 nM; with `Cc1ccc(-n2nc(C(C)(C)C)cc2NC(=O)Nc2cccc(CC3CC4CCC(C3)N4C(=O)Cc3ccc(F)cc3F)c2)cc1` (centres unmarked) [Compound A720, 1-(5-tert-Butyl-2-p-tolyl-2H-pyrazol-3-yl)-3-(3-{8-[2-(2,4-difluoro-phenyl)-acetyl]-8-aza-bicyclo[3.2.1]oct-3-ylmethyl}-phenyl)-urea], 10 to 500 nM. For `Cc1ccc(-n2nc(C(C)(C)C)cc2NC(=O)Nc2cccc(CC3CCN(C(=O)C4CCCO4)CC3)c2)cc1` (centres unmarked) [Compound A66, 1-(5-tert-Butyl-2-p-tolyl-2H-pyrazol-3-yl)-3-{3-[1-(tetrahydro-furan-2-carbonyl)-piperidin-4ylmethyl]-phenyl}-urea], the IC50 fell in the range of 10 to 500 nM.
